# Measurements from patent US8821927B2, “Pharmaceutical composition” (SmithKline Beecham (Cork) Limited, priority 2005, dated 2014).
# Assay: solubility in aqueous media
# Type: physicochemical
# Conditions: over the physiologically relevant pH range
# From the text: Of particular interest is N-{3-Chloro-4-[(3-fluorobenzyl)oxy]phenyl}-6-[5-({[2-(methanesulphonyl)ethyl]amino}methyl)-2-furyl]-4-quinazolinamine ditosylate monohydrate.
compound,measurement,value
"CS(=O)(=O)CCNCc1ccc(-c2ccc3ncnc(Nc4ccc(OCc5cccc(F)c5)c(Cl)c4)c3c2)o1 [GW572016, N-{3-Chloro-4-[(3-fluorobenzyl)oxy]phenyl}-6-[5-({[2-(methanesulphonyl)ethyl]amino}methyl)-2-furyl]-4-quinazolinamine]",solubility in aqueous media,poorly soluble
